Results as given in US5112815A, “9α-hydroxy-3-oxo-4,24(25)-stigmastadien-26-oic acid derivatives, a process for preparing same and pharmaceutical compositions containing same” (Richer Gedeon Vegyeszet, priority 1989, dated 1992).

Legend:
serum cholesterol = details: several animal species and humans, literature; cited from earlier work
[1] = test system: cholesterol biosynthesis (rat liver homogenate); assay: Inhibition of cholesterol biosynthesis: incorporation of radiolabelled acetic acid into cholesterol in rat liver homogenate; type: biochemical, Hannover Wistar male rats; details: 2 h at 37° C.
Description: The cholesterol-biosynthesis-inhibiting effect of the compounds according to the invention is illustrated by the example of 9 α-hydroxy-3-oxo-4,24(25)-stigmastadien-26-oic acid (I, wherein M stands for hydrogen). The inhibitory effect of this compound was compared with that of 3β-hydroxy-5α-cholest-8(14)-en-15-one (Colestolone) by the method of A. Endo and co-workers [Eur. J. Biochem. 77, 31 (1977); Biochem. Biophys. Acta 486, 71 (1977)] studying in rat liver homogenate the incorporation of radiolabelled acetic acid into cholesterol.
Hannover Wistar male rats weighing 50-60 g were used for the experiment. Before the experiments the animals were fed for a week with rat chew enriched with 5% cholestyramine, in a reversed light cycle (light from 4 p.m. to 4 a.m., and dark from 4 a.m. to 4 p.m.). The food and water were available ad libitum.
The animals were decapitated on the day of the experiment, Livers were immersed in ice cold Krebs/Ringer bicarbonate buffer (pH 7.4) and cut into small pieces. Using a tissue homogenizer in a gentle mode of operation we prepared a crude liver homogenate of which a portion equivalent to 100 mg of wet liver was weighed into glass-stoppered tubes. The operations were carried out under constant cooling. The incubation mixture included the liver homogenate, the Krebs/Ringer bicarbonate buffer, the sodium-(1-^14 C)acetate (supplied by IZINTA; specific activity: 14.86 MBq/mg) and the (^3 H)cholesterol oleate (supplied by Du Pont; specific activity: 3067 GBq/mmole). The steroids inhibiting cholesterol biosynthesis were added to the incubation mixture in an alcoholic solution containing albumin, as described by G. J. Schroepfer and co-workers [J. Biol. Chem. 24, 8975 (1977)]. The final volume of the incubation mixture was 2.0 ml. Incubation went on for 2 hours in a water bath of 37° C., then 2 ml of alcohol containing 15% (w/v) of KOH were added to the mixture, which was then kept at 70°-75° C. for further 2 hours. The lipids were extracted from the alkaline mixture by petroleum ether. After evaporation of the solvent in nitrogen stream the dry residue was dissolved in a mixture of acetone and ethanol, then the cholesterol was precipitated by a solution of digitonin. The precipitate was centrifuged and dissolved in scintillation cocktail. The activity was measured for 5 minutes using a Hitachi scintillation spectrometer.

CC(C)CCC[C@@H](C)[C@H]1CC(=O)C2=C3CC[C@H]4C[C@@H](O)CC[C@]4(C)[C@H]3CC[C@@]21C [3β-Hydroxy-5α-cholest-8(14)-en-15-one, 3β-hydroxy-5α-cholest-8(14)-en-15-one]
serum cholesterol-lowering effect (serum cholesterol): significant serum cholesterol-lowering effect | Inhibition, % ([1]; concentration 2.5 μM): 16.6% | Inhibition, % ([1]; concentration 10.0 μM): 55.0%

CCC(CC[C@@H](C)[C@H]1CC[C@H]2[C@@H]3CCC4=CC(=O)CC[C@]4(C)[C@@]3(O)CC[C@]12C)=C(C)C(=O)O [9α-hydroxy-3-oxo-4,24(25)-stigmastadien-26-oic acid]
Inhibition, % ([1]; concentration 2.5 μM): 65.3% | Inhibition, % ([1]; concentration 10.0 μM): 86.3%
